Consider 2 molecules from patent publication US6380166B1, “Glucopyranosides conjugates of 2-(4-hydroxy-phenyl)-3-methyl-1-[4-(2-amin-1-yl-ethoxy)-benzyl]-1H-indol-5-ols” (American Home Products Corporation, priority 1999, dated 2002).

For this assay, the target named is T1, estrogen receptor (Homo sapiens, UniProt P03372).
T1 construct: since the MCF-7 cells express estrogen receptors; endogenous in cells; host or cells: MCF-7 human breast carcinoma cells infected with adenovirus 5-ERE-tk-luciferase (reporter only)
T1 sequence (P03372 1-595): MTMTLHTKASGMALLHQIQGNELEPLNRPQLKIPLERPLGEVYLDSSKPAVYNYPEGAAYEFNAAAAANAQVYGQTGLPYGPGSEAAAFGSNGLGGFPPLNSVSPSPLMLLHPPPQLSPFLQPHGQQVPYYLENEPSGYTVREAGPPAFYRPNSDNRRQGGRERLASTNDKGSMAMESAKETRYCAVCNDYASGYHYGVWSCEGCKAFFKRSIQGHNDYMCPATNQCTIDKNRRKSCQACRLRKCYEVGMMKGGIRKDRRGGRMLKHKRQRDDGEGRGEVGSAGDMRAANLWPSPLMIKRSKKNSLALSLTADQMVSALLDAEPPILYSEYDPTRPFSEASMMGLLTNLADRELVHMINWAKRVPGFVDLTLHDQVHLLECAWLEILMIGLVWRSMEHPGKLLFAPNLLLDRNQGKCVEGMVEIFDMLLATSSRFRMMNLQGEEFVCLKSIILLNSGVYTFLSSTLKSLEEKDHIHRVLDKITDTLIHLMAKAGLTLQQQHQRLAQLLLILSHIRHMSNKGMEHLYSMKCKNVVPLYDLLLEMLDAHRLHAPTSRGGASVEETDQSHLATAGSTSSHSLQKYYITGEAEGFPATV
In words: MCF-7 ERE-tk-luciferase test procedure, antagonist mode. The format is cell-based. The note with it: co-dosed with 10 pM 17β-estradiol, MCF-7 cells infected with adenovirus 5-ERE-tk-luciferase, treated 24 h. An excerpt: Estrogen antagonist activity was shown for representative compounds of this invention in a standard pharmacological test procedure using MCF-7 cells transfected with an estrogen receptor. When administered orally, the compounds of this invention act at least partially as prodrugs for the corresponding hydroxylated compounds disclosed in EP 802183. Accordingly, the compounds of this invention are tissue selective estrogens, meaning that in certain tissue containing estrogen receptors, the compounds will act as estrogen agonists, and in other tissue containing estrogen receptors, the compounds will act as antagonists. […]
After treatment the cells were lysed on a shaker for 15 min with 25 uL/well of 1× cell culture lysis reagent (Promega Corporation). The cell lysates (20 uL) were transferred to a 96 well luminometer plate, and luciferase activity was measured in a MicroLumat LB 96 P luminometer (EG and G Bethold) using 100 uL/well of luciferase substrate (Promega Corporation). […] Following the injection of the substrate, luciferase activity was measured for 10 seconds after a 1 second delay. The data were transferred from the luminometer to a Macintosh personal computer and analyzed using the JMP software (SAS institute); this program subtracts the background reading from the luciferase measurement for each well and then determine the mean and standard deviation of each treatment. […]

Where a name gives a salt, the structure may show the parent alone.

The IC50 is the concentration that gives 50% inhibition. Regarding `Cc1c(-c2ccc(O)cc2)n(Cc2ccc(OCCN3CCCCC3)cc2)c2ccc(O[C@@H]3O[C@H](C(=O)O)[C@@H](O)[C@H](O)[C@H]3O)cc12` [Compound 29, 1-[4-(2-Piperidin-1-yl-ethoxy)-benzyl]-2-(4-hydroxy-phenyl)-3-methyl-1H-indol-5-ol 5-O-glucuronide triethylammonium salt], the IC50 turned out to be 230 nM.

`Cc1c(-c2ccc(O[C@@H]3O[C@H](C(=O)O)[C@@H](O)[C@H](O)[C@H]3O)cc2)n(Cc2ccc(OCCN3CCCCC3)cc2)c2ccc(O)cc12` [Compound 37, 2-(4-Hydroxy-phenyl)-3-methyl-1-[4-(2-piperidin-1-yl-ethoxy)-benzyl]-1H-indol-5-ol 4-O-Glucuronide Triethyl Ammonium Salt] returned an IC50 of 1200 nM.
